Assays:
[1] = system: L. amazonensis LV78 promastigotes; assay: Anti-promastigote activity (MTS assay), L. amazonensis LV78; type: cell-based; details: Leishmania amazonensis, 72 hours
Protocol: (§1) Promastigotes of visceral L. donovani Ld39 and LdHU3, and cutaneous L. amazonensis LV78, L. braziliensis UA847 and L. major FV1 were employed in the study. All strains were cultured in Schneider's Drosophila Medium (Invitrogen), pH 6.9 supplemented with 10% (v/v) heat inactivated fetal bovine serum (Hyclone) with 4 mM glutamine (Sigma) and 25 μg/mL gentamicin solution (Invitrogen) at 27° C. for 4 days. RAW264.7 cells were cultured in supplemented DMEM media with 10% heat inactivated FBS and 100 U/mL penicillin and 100 μg/mL of streptomycin. They were maintained at 37° C. in a humidified atmosphere with 5% CO2. The cells were split constantly after a confluent monolayer has been formed. The cells were harvested by a cell scraper.
(§2) Anti-promastigote activity was determined according to previous procedures (1) by Cell Titer 96® Aqueous Assay (Promega) that employed a tetrazolium compound. Promastigotes were seeded into 96-well flat bottom microtiter plate at 1×10^5 cells per well in a final volume of 100 μL medium and incubated with a series of concentrations of synthetic FM. Parasites were incubated at 27° C. for 72 hours. After 72 hours of incubation, 10 μL of MTS:PMS mixture [MTS:2-(4,5-Dimethylthiazol-2-yl-)-5-[3-(carboxymethoxy)phenyl]-2-(4-sulfophenyl)-2H-tetrazolium); PMS: phenazine methosulfate both purchased from Sigma] was added into each well of microtiter plate. The plate was then incubated at 27° C. for 4 hours for color development. After 4 hours of incubation, the OD values were determined at 490 nm using automatic microtiter plate reader (Bio-Rad).
(§3) IC50 values of known antileishmanials and the amine-containing flavonoid monomers of the present invention to promastigotes (L. amazonensis LV78, L major FV1, L. donovani HU3, L. donovani 39), macrophages (Raw 264.7 and PEM) and mouse fibroblast (L929) were determined. The anti-promastigotes activities and cytotoxicity of the amine-containing flavonoid monomers of the invention are shown in Table 1.

[2] = system: L. major FV1 promastigotes; assay: Anti-promastigote activity (MTS assay), L. major FV1; type: cell-based; details: Leishmania major, 72 hours
Protocol: as §1, §2, §3

[3] = system: L. donovani HU3 promastigotes; assay: Anti-promastigote activity (MTS assay), L. donovani HU3; type: cell-based; details: Leishmania donovani, 72 hours
Protocol: as §1, §2, §3

[4] = system: L. donovani Ld39 promastigotes; assay: Anti-promastigote activity (MTS assay), L. donovani Ld39; type: cell-based; details: Leishmania donovani, 72 hours
Protocol: as §1, §2, §3

[5] = Cytotoxicity, L929 fibroblasts; type: cell-based, mouse; details: mouse
Protocol: as §3

[6] = system: L. amazonensis LV78 amastigotes; assay: Anti-amastigote activity in infected PEM, L. amazonensis LV78; type: cell-based; details: Leishmania amazonensis, 72 h; infected PEM, 3 days, Giemsa
Protocol: (§4) Mouse peritoneal elicited macrophages (PEM) were obtained as previously described (2). A round cover slip (12 mm in diameter) was placed into each well of 24-well culture plate. Mouse PEM were resuspended in supplemented DMEM media containing 10% heat inactivated FBS (v/v), 100 U/mL penicillin and 100 μg/mL streptomycin and seeded into each well at a cell density of 1×10^5 cells per 500 μL. Macrophages were allowed to attach overnight. Non-adherent cells were removed by gentle washing with un-supplemented DMEM media twice. Adherent macrophages were infected with late-log promastigotes at a parasite-to-macrophage ratio of 20:1 overnight at 37° C. with 5% CO2. Non-internalized promastigotes were removed by washing twice with un-supplemented DMEM media. Infected macrophages were further incubated in 500 μL of supplemented DMEM media in the presence or absence of FM for 72 hours at 37° C. After incubation, cover slips were stained with Giemsa and the percentage of macrophages infected and number of amastigotes per 100 macrophages was enumerated.
(§5) PEM cells were infected with late-log promastigotes (L. amazonensis LV78, L. braziliensis UA847, L. donovani HU3, L. donovani 39) for 24 hr at 37° C. Infected macrophages were then treated with various antileishmanials and incubated for 3 days at 37° C. After 3 days, the cover slips were stained with Giemsa. The number of amastigotes per 100 macrophages were determined and used to calculate IC50 values.

[7] = system: L. donovani Ld39 amastigotes (SSG-resistant); assay: Anti-amastigote activity in infected PEM, L. donovani Ld39; type: cell-based; details: for Selective index (a)/(c): IC50 RAW264.7 over IC50 L. donovani Ld39 amastigotes; for IC50: Leishmania donovani, 72 h, infected PEM, 3 days, Giemsa, SSG-resistant
Protocol: as §4, §5

[8] = Cytotoxicity, peritoneal elicited macrophages (PEM); type: cell-based, mouse; details: mouse, Cytotoxicity IC50, PEM
Protocol: as §4, §3

[9] = system: L. donovani HU3 amastigotes; assay: Anti-amastigote activity in infected PEM, L. donovani HU3; type: cell-based; details: Leishmania donovani, 72 h; infected PEM, 3 days, Giemsa; SSG-sensitive
Protocol: as §4, §5

RAW264.7 cells = assay: Reactive oxygen species (ROS) level, DCFDA, RAW264.7; type: cell-based, murine
Protocol: (§6) 50,000 RAW264.7 were seeded in each well of black 96-well plates overnight. Next day, RAW264.7 cells were pre-loaded with 10 μM dichlorofluorescein diacetate (DCFDA) (Abcam) for 1 hr at 37° C. with 5% CO2. A control of non-DCFDA stained cells was also included. The DCFDA-contained supplemented DMEM media was removed. The cells were re-suspended with 10 μM or 30 μM of respective tested compounds and positive control, tert-butyl hydroperoxide. In Leishmania, 1×10^7 promastigotes were also pre-loaded with 10 μM DCFDA at 27° C. for 1 hr. After removing the DCFDA-contained media, the promastigotes were seeded into black 96-well plate and incubated with 30 μM of respective compounds or positive control. The ROS level was determined at different periods of time including 2, 4, 6, 8, 20, 46 and 72 hr using microplate reader (excitation: 485 nm and emission: […]).
(§7) The ROS levels in both macrophage RAW264.7 and L. amazonensis promastigotes was measured by dichlorofluorescein diacetate (DCFDA) dye which is permeable to the cells. With oxidative stress, DCFDA would be oxidized to fluorescent DCF which is an indicator of intracellular ROS level. RAW cells or L. amazonensis promastigotes were pre-loaded with 10 μM of DCFDA for 1 hr, washed and exposed to 39, FM09, pentamidine and amphotericin B for different period of time (2, 4, 6, 8, 20, 46 and 72 hr). The fluorescence level was measured at the 520 nm using 485 nm as an excitation wavelength. 0.1% DMSO or 0.3% DMSO was used as a solvent control. The fluorescent value has been subtracted from non-DCFDA stained cells. The values were presented as mean±standard error of mean.

[10] = system: L. amazonensis LV78 promastigotes; assay: Reactive oxygen species (ROS) level, DCFDA, promastigotes; type: cell-based; details: 30 μM
Protocol: as §6, §7

SMILES | IC50 [1] [µM] | IC50 [2] [µM] | IC50 [3] [µM] | IC50 [4] [µM] | IC50 [5] [µM] | IC50 [6] [µM] | IC50 [7] [µM] | IC50 [8] [µM] | IC50 [9] [µM] | also measured
O=C(COc1ccc(-c2cc(=O)c3ccccc3o2)cc1)N1CCN(C(=O)c2ccncc2)CC1 [FM16, 2-(4-(2-(4-isonicotinoylpiperazin-1-yl)-2-oxoethoxy)phenyl)-4H-chromen-4-one] | > 100 | > 100 | > 50 | 87.1 ± 13 | > 100 | > 10 | 5.7 | – | – | Selective index (a)/(c) [7]: >17.5; Selective index (a)/(c) ([7]; listed as 16): > 17.5
O=c1cc(-c2ccc(OCCOCCNCc3ccccn3)cc2)oc2ccccc12 [FM09m, 2-(4-(2-(2-((pyridin-2-ylmethyl)amino)ethoxy)ethoxy)phenyl)-4H-chromen-4-one] | – | – | 25.3 ± 3.94 | – | 23.9 ± 1.15 | 4.46 ± 0.68 | – | 28.4 | 9.3 ± 0.56 | –
NC[C@@H]1O[C@H](O[C@H]2[C@@H](O)[C@H](O[C@@H]3[C@@H](O)[C@H](N)C[C@H](N)[C@H]3O[C@H]3O[C@H](CO)[C@@H](O)[C@H](O)[C@H]3N)O[C@@H]2CO)[C@H](N)[C@@H](O)[C@@H]1O [Paromomycin, reference compound] | – | – | – | 24.5 ± 2.4 | – | – | 41 ± 1.1 | > 100 | – | –
CC(C)(C)OO [tert-butyl hydroperoxide] | – | – | – | – | – | – | – | – | – | RAW264.7 ROS Level, Relative fold (RF) (RAW264.7 cells; 10 μM, 2 hr): 2.3 fold; RAW264.7 ROS Level, Relative fold (RF) (RAW264.7 cells; 10 μM, 4 hr): 2.3 fold; RAW264.7 ROS Level, Relative fold (RF) (RAW264.7 cells; 10 μM, 6 hr): 2.2 fold; RAW264.7 ROS Level, Relative fold (RF) (RAW264.7 cells; 10 μM, 8 hr): 1.9 fold; RAW264.7 ROS Level, Relative fold (RF) (RAW264.7 cells; 10 μM, 20 hr): 1.8 fold; RAW264.7 ROS Level, Relative fold (RF) (RAW264.7 cells; 30 μM, 2 hr): 2.9 fold; RAW264.7 ROS Level, Relative fold (RF) (RAW264.7 cells; 30 μM, 4 hr): 2.9 fold; RAW264.7 ROS Level, Relative fold (RF) (RAW264.7 cells; 30 μM, 6 hr): 2.6 fold; RAW264.7 ROS Level, Relative fold (RF) (RAW264.7 cells; 30 μM, 20 hr): 1.9 fold; RAW264.7 ROS Level, Relative fold (RF) (RAW264.7 cells; 30 μM, 46 hr): 1.6 fold; L. amazon LV78 promastigote ROS Level, Relative fold (RF) ([10]; 2 hr): 1.4 fold; L. amazon LV78 promastigote ROS Level, Relative fold (RF) ([10]; 4 hr): 1.3 fold; L. amazon LV78 promastigote ROS Level, Relative fold (RF) ([10]; 6 hr): 1.4 fold; L. amazon LV78 promastigote ROS Level, Relative fold (RF) ([10]; 20 hr): 1.7 fold; L. amazon LV78 promastigote ROS Level, Relative fold (RF) ([10]; 46 hr): 1.5 fold; L. amazon LV78 promastigote ROS Level, Relative fold (RF) ([10]; 72 hr): 1.9 fold
O=c1cc(-c2ccc(OCCC3CCN(Cc4ccccn4)CC3)cc2)oc2ccccc12 [FM05a, 2-(4-(2-(1-(pyridin-2-ylmethyl)piperidin-4-yl)ethoxy)phenyl)-4H-chromen-4-one] | 2.97 ± 0.91 | – | 7.43 ± 2.15 | – | 58.9 ± 23.3 | 3.57 ± 1.73 | – | 17.6 | 5.2 ± 1.68 | –
NCCOCCOc1ccc(-c2cc(=O)c3ccccc3o2)cc1 [FM20, 2-(4-(2-(2-(amino)ethoxy)ethoxy)phenyl)-4H-chromen-4-one] | 57.6 ± 37.3 | 59.8 ± 6.9 | – | 34.9 ± 14.1 | 41.5 ± 15.6 | – | 0.7 ± 0.1 | 57.5 ± 9.2 | – | Selective index (a)/(c) [7]: 22.6
O=C(COc1ccc(-c2cc(=O)c3ccccc3o2)cc1)N1CCCNCC1 [FM11, 2-(4-(2-(1,4-diazepan-1-yl)-2-oxoethoxy)phenyl)-4H-chromen-4-one] | > 100 | > 100 | 66.9 ± 9.7 | > 100 | > 33 | 7.1 ± 1.6 | > 10 | – | – | –
O=c1cc(-c2ccc(OCCOCCN(Cc3ncccn3)Cc3ncccn3)cc2)oc2ccccc12 [FM09d, 2-(4-(2-(2-(bis(pyrimidin-2-ylmethyl)amino)ethoxy)ethoxy)phenyl)-4H-chromen-4-one] | 35.3 ± 4.2 | – | 42.4 ± 7.65 | – | > 100 | > 10 | – | > 100 | > 10 | –
O=c1cc(-c2ccc(OCCOCCN(Cc3ncccc3Cl)Cc3ncccc3Cl)cc2)oc2ccccc12 [FM09g, 2-(4-(2-(2-(bis((3-chloropyridin-2-yl)methyl)amino)ethoxy)ethoxy)phenyl)-4H-chromen-4-one] | 28.1 ± 5.24 | – | 18.1 ± 4.88 | – | 33.7 ± 10.6 | > 10 | – | – | > 10 | –
O=C(COc1ccc(-c2cc(=O)c3ccccc3o2)cc1)N1CCNCC1 [FM10, 2-(4-(2-oxo-2-(piperazin-1-yl)ethoxy)phenyl)-4H-chromen-4-one] | 31.4 ± 2.4 | 78.5 ± 11.3 | 37.6 ± 2.8 | 49.5 ± 8 | > 33 | 6 ± 0.2 | > 10 | – | – | –
O=C(COc1ccc(-c2cc(=O)c3ccccc3o2)cc1)N1CCN(Cc2ccncc2)CC1 [FM12, 2-(4-(2-oxo-2-(4-(pyridin-4-ylmethyl)piperazin-1-yl)ethoxy)phenyl)-4H-chromen-4-one] | > 100 | > 100 | 25.4 ± 3.6 | 15 ± 2.2 | > 100 | > 10 | > 10 | – | – | –
O=c1cc(-c2ccc(OCCOCCNC(c3ccccn3)c3ccccn3)cc2)oc2ccccc12 [FM09p, 2-(4-(2-(2-((di(pyridin-2-yl)methyl)amino)ethoxy)ethoxy)phenyl)-4H-chromen-4-one] | 2.8 | – | 2.4 | – | 2.1 | – | – | 12.5 | – | –
O=c1cc(-c2ccc(OCCN3CCN(Cc4ccccn4)CC3)cc2)oc2ccccc12 [FM01a, 2-(4-(2-(4-(pyridin-2-ylmethyl)piperazin-1-yl)ethoxy)phenyl)-4H-chromen-4-one] | 11.7 ± 1.34 | – | 15.4 ± 5.98 | – | 60.3 ± 2.3 | 8.74 ± 0.77 | – | – | 10 | –
